Data: the NIST ThermoML archive (doi:10.1016/j.tca.2013.09.006)
Numbers after ± are expanded uncertainties.

Assay: mn = molality of the nth substance listed, in mol/kg
Conditions: 101 kPa, Liquid; for mass density: Vibrating tube method; for speed of sound: vibrating tube:WF =

CC(C)[C@H](NC(=O)[C@H](C)N)C(=O)O [L-alanyl-L-valine] + O
Conditions | mass density, 305.15 K [kg/m3] | mass density, 310.15 K [kg/m3] | mass density, 315.15 K [kg/m3] | speed of sound, 305.15 K [m/s] | speed of sound, 310.15 K [m/s] | speed of sound, 315.15 K [m/s]
m1 = 0.00201 | 995.187 ± 0.1 | 993.499 ± 0.1 | 991.606 ± 0.1 | 1514.3 ± 2 | 1524.8 ± 2 | 1533.5 ± 2
m1 = 0.00414 | 995.289 ± 0.1 | 993.601 ± 0.1 | 991.707 ± 0.1 | 1514.5 ± 2 | 1525 ± 2 | 1533.7 ± 2
m1 = 0.00605 | 995.381 ± 0.1 | 993.692 ± 0.1 | 991.798 ± 0.1 | 1514.6 ± 2 | 1525.2 ± 2 | 1534 ± 2
m1 = 0.00791 | 995.471 ± 0.1 | 993.781 ± 0.1 | 991.886 ± 0.1 | 1514.8 ± 2 | 1525.5 ± 2 | 1534.1 ± 2
m1 = 0.01019 | 995.58 ± 0.1 | 993.89 ± 0.1 | 991.994 ± 0.1 | 1515 ± 2 | 1525.7 ± 2 | 1534.3 ± 2
m1 = 0.01179 | 995.657 ± 0.1 | 993.966 ± 0.1 | 992.07 ± 0.1 | 1515.2 ± 2 | 1525.9 ± 2 | 1534.4 ± 2
m1 = 0.01396 | 995.761 ± 0.1 | 994.07 ± 0.1 | 992.173 ± 0.1 | 1515.4 ± 2 | 1526.1 ± 2 | 1534.6 ± 2
m1 = 0.01551 | 995.835 ± 0.1 | 994.143 ± 0.1 | 992.246 ± 0.1 | 1515.6 ± 2 | 1526.4 ± 2 | 1534.8 ± 2
m1 = 0.01805 | 995.957 ± 0.1 | 994.264 ± 0.1 | 992.366 ± 0.1 | 1515.8 ± 2 | 1526.7 ± 2 | 1535 ± 2
m1 = 0.01971 | 996.037 ± 0.1 | 994.343 ± 0.1 | 992.445 ± 0.1 | 1515.9 ± 2 | 1526.9 ± 2 | 1535.2 ± 2
